SMILES strings stand for the structures.

In experiment [1] the target is T1, recombinant rat L-type calcium channel (LTCC) subunits (α1c, α2δ, and β1) (Rattus norvegicus, UniProt P22002).
T1 construct: expressed in transfected cells; pcDNA6.2DEST α1c, pcDNA3.2DEST β1, pcDNA3.1-Zeo α2δ)
Briefly: FLIPR calcium mobilization assay for L-type calcium channel. Format: cell-based. The conditions noted are these: calcium mobilization in vitro assay; HEK293 cells stably expressing LTCC, 90 mM KCl. Here is the method:
Recombinant human embryonal kidney cells (HEK293, ATCC) stably transfected with either N-type calcium channel (NTCC) subunits (α1b, α2δ, and β3) or L-type calcium channel (LTCC) subunits (α1c, α2δ, and β1) were routinely cultured in growth medium consisting of Dulbecco's Modified Eagles Medium containing 10% FBS, 100 U/mL penicillin, 100 μg/mL streptomycin, 4 mM L-glutamine, 500 μg/mL geneticin (G418), 20 μg/mL Blasticidin S (InVivogen, San Diego, Calif.) and 500 μg/mL zeocin (InVivogen).
FLIPR Calcium Mobilization Assay for L-type Calcium Channel. One day prior to performing this assay, HEK293 cells stably expressing recombinant rat L-type calcium channel (LTCC) subunits (α1c, α2δ, and β1) were trypsinized, then seeded on poly-D-lysine-coated 96-well clear-bottom black plates (Becton Dickinson, Franklin Lakes, N.J.) at 75,000 cells/well. On the day of the assay, the plates were washed with LTCC wash buffer (127 mM NaCl, 2 mM MgCl2, 700 μM NaH2PO4, 5 mM CaCl2, 5 mM NaHCO3, 8 mM HEPES, 10 mM glucose, pH 7.4), then loaded with 0.1 mL of LTCC wash buffer containing Fluo-4 (3 μM final concentration, Molecular Probes, Eugene, Oreg.). After 1 hour, the cells were washed with 0.1 mL LTCC wash buffer and resuspended in 0.05 mL LTCC assay buffer (same composition as LTCC wash buffer). Plates were then transferred to a FLIPR^96 for assay. The FLIPR measured basal Fluo-4 fluorescence for 15 seconds, then added 0.05 mL of each compound tested diluted in LTCC assay buffer at final concentrations ranging from about 846 pM to about 17 μM. Fluo-4 fluorescence was then measured for 5 minutes. 0.1 mL KCl agonist dissolved in LTCC assay buffer was then added to the cells to produce a final concentration of 90 mM KCl, and fluorescence was measured for another 45 seconds. Data were collected over the entire time course and analyzed using Excel, Graph Pad Prism, or an in-house regression analysis software.
L-type Recombinant Cell Line Development. L-type calcium channel expressing HEK-293 cells were created in two stages. Stage 1 was created as follows. The rat α1c, and β1 cDNA expression constructs (2.5 μg each) were co-transfected into human embryonic kidney (HEK-293) cells by Lipofectamine Plus reagent (Invitrogen), as per manufacturer's instructions. 24 hours later, cells were split in limiting dilution into multiple 96-well plates in selection media containing 20 μg/mL blasticidin and 500 μg/mL geneticin, and incubated for 3 weeks at 37° C., 5% CO2, 95% humidity. Plates containing ≦1 clone per well were cultured until wells positive for single clones were confluent. Individual clones were then arrayed into columns of a destination 96-well plate, and partly split into 6-well plates for culture maintenance. Array plates were washed once with LTCC wash (or assay) buffer and cells loaded for 1 hour with 0.1 mL of LTCC buffer containing Fluo-4 (3 μM final concentration, Molecular Probes). Then they were washed twice with 0.1 mL of LTCC buffer, and replaced with 0.1 mL LTCC buffer. Plates were then transferred to a FLIPR^96 for assay. The FLIPR measured basal Fluo-4 fluorescence for 315 seconds, then added 0.1 mL KCl agonist dissolved in LTCC buffer and measured fluorescence for another 45 seconds. Final KCl concentration was 90 mM. Data were collected over the entire time course and analyzed using Excel, Graph Pad Prism, or Activity Base software. The clone with the greatest signal-to-noise ratio, best stability of response with passage number, and best adhesion to PDL precoated plates (Becton Dickinson) was expanded, characterized and used for stage 2 cell line development.
Stage 2 of L-type cell line development was carried out as follows. The rat α2δ cDNA expression construct (5 μg each) was transfected into the stage 1 L-type clonal cell line by Lipofectamine Plus reagent (Invitrogen), as per manufacturer's instructions. […]

Experiment [2] deals with T2, N-type calcium channel (NTCC) (Homo sapiens, UniProt Q00975).
T2 construct: endogenous in cells; host or cells: IMR32 cells (ATCC), differentiated with dibutyryl cAMP and bromodeoxyuridine
Briefly: FLIPR calcium mobilization assay for N-type calcium channel. The class given is cell-based. The conditions noted are these: calcium mobilization in vitro assay; differentiated IMR32 cells, 90 mM KCl, 5 μM nitrendipine. As for the experimental part: Cell maintenance and differentiation. Unless noted otherwise, cell culture reagents were purchased from Mediatech of Hemdon, Md. IMR32 cells (American Type Culture Collection, ATCC, Manassas, Va.) were routinely cultured in growth medium consisting of minimum essential medium containing 10% fetal bovine serum (FBS, Hyclone, Logan, Utah), 100 U/mL penicillin, 100 μg/mL streptomycin, 2 mM L-glutamine, 1 mM sodium pyruvate, and 1×MEM non-essential amino acids. 80-90% confluent flasks of cells were differentiated using the following differentiation medium: Growth medium plus 1 mM dibutyryl cyclic AMP (Sigma, St. Louis, Mo.), and 2.5 μM bromodeoxyuridine (Sigma). Cells were differentiated for 8 days by replacing differentiation medium every 2-3 days.
FLIPR Calcium Mobilization Assay for N-type Calcium Channel. One day prior to performing this assay, differentiated IMR32 cells were treated with 1× CellStripper, and seeded on poly-D-lysine-coated 96-well clear-bottom black plates (Becton Dickinson, Franklin Lakes, N.J.) at 200,000 cells/well. On the day of the assay, the cell plates were washed with IMR32 buffer (127 mM NaCl, 1 mM KCl, 2 mM MgCl2, 700 μM NaH2PO4, 5 mM CaCl2, 5 mM NaHCO3, 8 mM HEPES, 10 mM glucose, pH 7.4), then pre-stimulated with KCl and loaded as follows: 0.05 mL of IMR32 buffer, 0.05 mL of each compound tested diluted in IMR32 buffer containing 20 μM nitrendipine (Sigma), and 0.1 mL KCl dissolved in IMR32 buffer, plus Fluo-4 were added (3 μM final concentration, Molecular Probes, Eugene, Oreg.). Final test compound concentrations ranged from about 846 μM to about 17 μM, final nitrendipine concentration was 5 μM, and final KCl concentration was 90 mM. After 1 hour, the cells were washed twice with 0.05 mL of each compound tested in nitrendipine-containing IMR32 buffer (no KCl or Fluo-4), and then replaced with 0.1 mL of each compound tested in nitrendipine-containing IMR32 buffer. Plates were then transferred to a Fluorimetric Imaging Plate Reader (FLIPR^96, Molecular Devices, Inc., Sunnyvale, Calif.) for assay. The FLIPR measured basal Fluo-4 fluorescence for 315 seconds (i.e., 5 minutes and 15 seconds), then added 0.1 mL KCl agonist dissolved in IMR32 buffer and measured fluorescence for another 45 seconds. Final test compound concentrations on the cells after FLIPR read ranged from about 846 μM to about 17 μM, final nitrendipine concentration was 5 μM, and final KCl concentration was 90 mM. Data were collected over the entire time course and analyzed using Excel, Graph Pad Prism (version 3.02, Graph Pad, San Diego, Calif.), or an in-house non-linear regression analysis software.
A general note: Calcium flux is commonly read through the fluorescence of an indicator in the cells.

T1 sequence (P22002 whole entry): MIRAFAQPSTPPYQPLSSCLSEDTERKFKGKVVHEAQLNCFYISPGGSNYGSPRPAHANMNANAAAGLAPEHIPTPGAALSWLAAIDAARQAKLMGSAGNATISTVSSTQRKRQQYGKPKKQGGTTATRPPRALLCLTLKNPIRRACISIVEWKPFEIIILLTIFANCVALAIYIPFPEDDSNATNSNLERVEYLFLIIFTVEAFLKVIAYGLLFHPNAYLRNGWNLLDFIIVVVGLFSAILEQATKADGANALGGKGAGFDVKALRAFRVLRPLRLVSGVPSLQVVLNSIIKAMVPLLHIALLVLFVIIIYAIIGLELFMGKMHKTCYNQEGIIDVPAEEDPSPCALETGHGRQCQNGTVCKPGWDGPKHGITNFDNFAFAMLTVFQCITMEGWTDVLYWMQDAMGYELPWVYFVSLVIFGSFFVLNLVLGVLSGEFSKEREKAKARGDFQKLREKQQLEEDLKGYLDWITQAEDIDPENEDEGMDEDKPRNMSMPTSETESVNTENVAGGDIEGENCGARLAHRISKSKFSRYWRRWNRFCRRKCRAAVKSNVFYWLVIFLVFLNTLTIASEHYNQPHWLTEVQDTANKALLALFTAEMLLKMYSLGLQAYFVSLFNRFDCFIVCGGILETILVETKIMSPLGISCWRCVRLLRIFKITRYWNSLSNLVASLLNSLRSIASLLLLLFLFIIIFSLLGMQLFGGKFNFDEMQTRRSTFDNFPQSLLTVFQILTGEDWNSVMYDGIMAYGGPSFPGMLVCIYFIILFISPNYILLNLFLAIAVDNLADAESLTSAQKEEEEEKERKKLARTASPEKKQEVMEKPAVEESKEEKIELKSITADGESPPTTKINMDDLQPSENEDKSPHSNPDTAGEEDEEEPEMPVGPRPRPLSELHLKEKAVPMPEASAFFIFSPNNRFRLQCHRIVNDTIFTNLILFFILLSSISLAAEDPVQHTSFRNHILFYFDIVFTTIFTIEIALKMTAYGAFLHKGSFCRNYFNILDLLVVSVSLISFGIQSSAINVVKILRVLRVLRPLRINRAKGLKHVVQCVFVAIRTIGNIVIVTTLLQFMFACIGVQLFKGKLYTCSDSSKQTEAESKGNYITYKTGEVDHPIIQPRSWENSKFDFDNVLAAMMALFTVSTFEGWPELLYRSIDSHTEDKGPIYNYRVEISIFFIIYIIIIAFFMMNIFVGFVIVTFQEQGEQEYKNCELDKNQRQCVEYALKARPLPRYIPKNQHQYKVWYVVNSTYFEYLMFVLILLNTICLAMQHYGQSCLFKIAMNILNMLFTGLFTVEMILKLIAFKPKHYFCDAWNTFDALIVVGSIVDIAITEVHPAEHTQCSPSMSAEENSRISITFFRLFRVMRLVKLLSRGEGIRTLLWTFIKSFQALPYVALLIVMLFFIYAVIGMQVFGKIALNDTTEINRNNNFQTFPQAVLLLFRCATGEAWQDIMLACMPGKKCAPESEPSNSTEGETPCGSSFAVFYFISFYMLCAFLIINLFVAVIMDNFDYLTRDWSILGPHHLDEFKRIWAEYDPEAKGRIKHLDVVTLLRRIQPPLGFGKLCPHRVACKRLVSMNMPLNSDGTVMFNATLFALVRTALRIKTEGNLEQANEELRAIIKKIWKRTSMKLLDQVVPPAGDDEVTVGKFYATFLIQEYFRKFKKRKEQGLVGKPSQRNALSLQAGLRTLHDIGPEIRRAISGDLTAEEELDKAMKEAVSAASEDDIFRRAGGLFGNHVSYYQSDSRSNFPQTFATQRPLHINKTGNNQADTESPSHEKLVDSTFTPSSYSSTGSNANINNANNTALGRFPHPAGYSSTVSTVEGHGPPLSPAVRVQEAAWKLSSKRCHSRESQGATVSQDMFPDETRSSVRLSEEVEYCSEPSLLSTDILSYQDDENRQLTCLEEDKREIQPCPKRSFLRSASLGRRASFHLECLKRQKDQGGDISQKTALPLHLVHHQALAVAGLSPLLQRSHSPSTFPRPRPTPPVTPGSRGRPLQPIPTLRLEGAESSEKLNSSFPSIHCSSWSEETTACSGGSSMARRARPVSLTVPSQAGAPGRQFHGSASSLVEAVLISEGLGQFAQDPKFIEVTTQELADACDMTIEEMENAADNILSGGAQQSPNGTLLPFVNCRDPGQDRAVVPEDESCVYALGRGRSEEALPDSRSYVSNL
T1 sequence (P54290 25-944 partner): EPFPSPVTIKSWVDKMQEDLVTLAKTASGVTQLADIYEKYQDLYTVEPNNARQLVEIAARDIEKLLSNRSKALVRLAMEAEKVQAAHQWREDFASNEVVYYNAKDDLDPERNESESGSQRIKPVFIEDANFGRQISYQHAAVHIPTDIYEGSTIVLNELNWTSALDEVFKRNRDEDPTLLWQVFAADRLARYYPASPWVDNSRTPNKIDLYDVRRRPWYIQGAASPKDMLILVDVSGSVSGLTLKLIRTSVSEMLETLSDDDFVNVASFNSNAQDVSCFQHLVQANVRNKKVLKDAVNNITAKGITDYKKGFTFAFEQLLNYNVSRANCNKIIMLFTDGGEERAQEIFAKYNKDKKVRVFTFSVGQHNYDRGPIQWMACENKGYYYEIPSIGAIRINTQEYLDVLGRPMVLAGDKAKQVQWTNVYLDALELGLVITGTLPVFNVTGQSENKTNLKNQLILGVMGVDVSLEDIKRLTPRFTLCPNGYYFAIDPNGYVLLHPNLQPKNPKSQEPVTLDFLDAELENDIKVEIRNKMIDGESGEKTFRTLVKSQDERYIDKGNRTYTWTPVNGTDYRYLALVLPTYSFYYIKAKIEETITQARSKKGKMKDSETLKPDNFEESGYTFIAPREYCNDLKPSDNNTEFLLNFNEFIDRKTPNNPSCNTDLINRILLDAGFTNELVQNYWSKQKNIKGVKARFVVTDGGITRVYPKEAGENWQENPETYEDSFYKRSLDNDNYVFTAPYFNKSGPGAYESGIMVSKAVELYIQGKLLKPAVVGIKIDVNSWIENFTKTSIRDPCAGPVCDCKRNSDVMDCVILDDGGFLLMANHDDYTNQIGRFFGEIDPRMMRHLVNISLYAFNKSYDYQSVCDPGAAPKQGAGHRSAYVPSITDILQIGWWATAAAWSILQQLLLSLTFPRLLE
T1 sequence (P54290 945-1091 partner): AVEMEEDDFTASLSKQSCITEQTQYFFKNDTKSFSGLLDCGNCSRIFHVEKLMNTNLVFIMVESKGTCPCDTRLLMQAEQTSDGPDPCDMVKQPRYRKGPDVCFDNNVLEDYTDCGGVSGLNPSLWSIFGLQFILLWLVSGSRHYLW
T1 sequence (P54283 whole entry partner): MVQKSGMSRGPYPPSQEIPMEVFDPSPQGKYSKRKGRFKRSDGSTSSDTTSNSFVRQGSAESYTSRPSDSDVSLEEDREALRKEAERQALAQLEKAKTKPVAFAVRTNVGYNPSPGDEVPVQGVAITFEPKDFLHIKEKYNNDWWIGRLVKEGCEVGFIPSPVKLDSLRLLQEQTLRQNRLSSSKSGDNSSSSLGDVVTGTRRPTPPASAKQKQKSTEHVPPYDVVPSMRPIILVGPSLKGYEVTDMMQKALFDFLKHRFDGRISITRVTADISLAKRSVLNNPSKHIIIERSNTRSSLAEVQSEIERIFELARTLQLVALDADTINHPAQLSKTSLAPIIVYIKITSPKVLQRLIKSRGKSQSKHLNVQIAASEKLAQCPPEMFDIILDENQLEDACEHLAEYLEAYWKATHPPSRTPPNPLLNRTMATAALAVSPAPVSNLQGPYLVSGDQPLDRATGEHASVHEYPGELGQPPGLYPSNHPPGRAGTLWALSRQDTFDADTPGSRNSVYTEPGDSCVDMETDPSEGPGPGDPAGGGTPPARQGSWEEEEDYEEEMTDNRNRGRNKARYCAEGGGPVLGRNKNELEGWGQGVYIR

For `COCCNCCC(=O)N1CCCC(N(C2CC2)S(=O)(=O)c2cccc(C(F)(F)F)c2)C1` (centres unmarked) [N-Cyclopropyl-N-{1-[3-(2-methoxyethylamino)propionyl]piperidin-3-yl}-3-trifluoromethylbenzenesulfonamide], the IC50 – broadly, the point on the concentration scale where inhibition reaches its midpoint – is 10 to 20 µM in experiment [1] and 0.81 µM in experiment [2].

Source of the values: patent publication US8247442B2, “Benzenesulfonamide compounds and their use” (Purdue Pharma L.P., priority 2006, dated 2012).
